Measured values as given in patent publication US12059422B2 (MEI Pharma, Inc., priority 2011, dated 2024).

Key:
[1] = target: T1, PI3Kδ (Homo sapiens, UniProt O00329); assay: ELISA assay for PI3Kδ: sandwich ELISA, phosphorylation of AKT (Thr308) in Raji cells; format: cell-based; settings: for IC50: cellular, pAKT (Thr308), Raji cells, anti-Human IgM stimulation, read-out: IC50 p110δ; for α/δ ratio / β/δ ratio / γ/δ ratio: ratio of cellular IC50 values, Table 2
T1 construct: endogenous in cells; host or cells: Raji (ATCC #CCL-86)
T1 sequence (O00329 whole entry): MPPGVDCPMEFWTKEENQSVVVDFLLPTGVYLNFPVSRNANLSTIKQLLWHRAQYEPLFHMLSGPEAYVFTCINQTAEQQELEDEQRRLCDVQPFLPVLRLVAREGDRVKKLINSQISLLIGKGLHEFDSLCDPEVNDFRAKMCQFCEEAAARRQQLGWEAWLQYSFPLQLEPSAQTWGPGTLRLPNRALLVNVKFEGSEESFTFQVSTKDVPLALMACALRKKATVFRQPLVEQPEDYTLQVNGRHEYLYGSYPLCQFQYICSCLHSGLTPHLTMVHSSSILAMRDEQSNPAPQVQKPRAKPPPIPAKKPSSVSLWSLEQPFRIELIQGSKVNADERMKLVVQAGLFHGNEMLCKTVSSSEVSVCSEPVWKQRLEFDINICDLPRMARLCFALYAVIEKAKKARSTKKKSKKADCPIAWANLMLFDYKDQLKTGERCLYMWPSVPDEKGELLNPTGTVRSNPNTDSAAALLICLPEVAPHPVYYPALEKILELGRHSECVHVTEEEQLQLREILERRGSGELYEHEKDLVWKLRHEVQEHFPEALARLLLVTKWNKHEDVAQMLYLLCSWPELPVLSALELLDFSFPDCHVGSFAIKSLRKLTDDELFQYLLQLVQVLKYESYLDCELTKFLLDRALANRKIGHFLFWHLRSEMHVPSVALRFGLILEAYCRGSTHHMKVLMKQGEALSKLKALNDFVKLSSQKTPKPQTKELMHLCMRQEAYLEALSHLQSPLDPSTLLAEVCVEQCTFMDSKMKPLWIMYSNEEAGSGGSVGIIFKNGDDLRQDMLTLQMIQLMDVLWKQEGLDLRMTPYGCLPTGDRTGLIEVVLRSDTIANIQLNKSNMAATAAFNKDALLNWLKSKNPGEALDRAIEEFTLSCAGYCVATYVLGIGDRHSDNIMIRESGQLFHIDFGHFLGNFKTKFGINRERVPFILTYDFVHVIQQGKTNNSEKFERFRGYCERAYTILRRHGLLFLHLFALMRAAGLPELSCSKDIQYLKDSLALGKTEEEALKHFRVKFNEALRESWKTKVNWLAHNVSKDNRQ
T1 sequence (P27986 whole entry partner): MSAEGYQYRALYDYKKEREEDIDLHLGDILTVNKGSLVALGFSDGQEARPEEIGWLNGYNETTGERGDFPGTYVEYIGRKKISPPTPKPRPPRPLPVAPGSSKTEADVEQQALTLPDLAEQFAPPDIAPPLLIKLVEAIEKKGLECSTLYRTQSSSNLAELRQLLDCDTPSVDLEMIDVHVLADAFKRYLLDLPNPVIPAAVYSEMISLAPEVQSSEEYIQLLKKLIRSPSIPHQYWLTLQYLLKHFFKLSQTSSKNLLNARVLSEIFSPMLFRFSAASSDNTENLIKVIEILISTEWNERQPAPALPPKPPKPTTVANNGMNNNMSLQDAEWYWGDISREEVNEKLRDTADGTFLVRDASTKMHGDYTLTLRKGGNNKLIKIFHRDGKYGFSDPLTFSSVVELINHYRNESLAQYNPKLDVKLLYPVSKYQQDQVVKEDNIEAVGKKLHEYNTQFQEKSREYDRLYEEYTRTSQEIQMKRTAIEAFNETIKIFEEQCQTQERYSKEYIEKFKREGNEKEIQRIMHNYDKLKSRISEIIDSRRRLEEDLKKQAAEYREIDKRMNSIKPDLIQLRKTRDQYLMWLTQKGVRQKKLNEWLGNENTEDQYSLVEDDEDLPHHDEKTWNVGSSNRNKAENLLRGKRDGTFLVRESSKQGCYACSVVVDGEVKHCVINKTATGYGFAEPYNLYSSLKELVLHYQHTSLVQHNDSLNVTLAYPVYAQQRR
Method: Cellular PI3Kδ activity was determined by measuring the phosphorylation of AKT (Thr308) using a sandwich enzyme-linked immunosorbant assay (ELISA). Raji (Burkitt's Lymphoma) cells were obtained from ATCC (ATCC #CCL-86). Phosphate buffer saline (PBS) contained 2.7 M NaCl, 54 mM KCl, 86 mM […] (dibasic, anhydrous), and 28 mM […] (monobasic, anhydrous) at pH 7.2. Wash buffer contained PBS supplemented with 0.05% Tween-20. Blocking buffer contained wash buffer supplemented with 1% BSA. A 10× stimulation mixture contained 5 μg/mL anti-Human IgM antibody (Sigma #12386) diluted in serum-free RPMI medium (CellGro #CV-10-040-CV). Compounds for testing were dissolved and serially diluted in 100% DMSO (total of 10 concentrations), and then diluted in serum-free RPMI to 5×final assay concentration.
Raji cells were subcultured in RPMI medium supplemented with 10% fetal bovine serum, 100 IU/mL penicillin, 100 μg/mL streptomycin, and 1×MEM non-essential amino acids. Sandwich ELISA plates were prepared by coating 96-well assay plates (Pierce #15042) with 100 μL/well capture antibody (Cell Signaling Technology #7142 or 7144) diluted in PBS. Plates were incubated overnight at 4° C., then washed with wash buffer, after which 200 μL/well blocking buffer was added to the plates and incubated at room temperature for at least 2 hrs. Raji cells were resuspended in serum-free RPMI medium and seeded into V-bottom, 2-mL 96-well blocks (Corning #3961) at 10^6 cells/well, then incubated for 2 hrs in a 37° C., 5% CO2 incubator. Compound treatment was performed by adding the 5× compound mixture to the cells and incubating for 2 hrs at 37° C., 5% CO2, after which the 10× stimulation mixture was added to the plates and incubated for 30 min at 37° C., 5% CO2. Cells were pelleted by centrifuging plates at 1500 RPM for 5 min at room temperature. Media was carefully removed and cells were lysed by adding 100 μL/well cell lysis buffer (Cell Signaling Technology #9803) supplemented with protease and phosphatase inhibitors (Thermo Fisher #78443). Plates were incubated on ice for 30 min, then the lysates (80 μL for pAKT^T308, 10 μL for total AKT) were transferred to prepared assay plates and incubated at 4° C. overnight. After washing plates with wash buffer, 100 μL/well detection antibody (Cell Signaling Technology #7142 or 7144) diluted in blocking buffer was added to the plates and incubated for 1 hr at 37° C. Plates were washed and 100 μL/well of HRP-conjugated secondary antibody (Cell Signaling Technology #7142 or 7144) diluted in blocking buffer was added to plates and incubated for 1 hr at room temperature. Plates were washed with wash buffer and 100 μL/well of luminescent substrate was added to plates. After 1 min on a plate shaker at medium speed, luminescence was read on a Wallac Victor2 plate reader. IC50 values were determined by curve fitting using a Collaborative Drug Discovery database (www.collaborativedrug.com).

[2] = target: mTOR (Homo sapiens, UniProt P42345); assay: mTOR inhibition (Table 1); format: biochemical; settings: Table 1, no method described
[3] = target: PI3Kα (Homo sapiens, UniProt P42336); assay: ELISA assay for PI3Kα: in-cell ELISA, phosphorylation of AKT (Thr308) in MDA-MB-453 cells; format: cell-based; settings: cellular, pAKT (Thr308), IGF-1 stimulation, read-out: IC50 p110α
PI3Kα, sequence (P27986 2-724): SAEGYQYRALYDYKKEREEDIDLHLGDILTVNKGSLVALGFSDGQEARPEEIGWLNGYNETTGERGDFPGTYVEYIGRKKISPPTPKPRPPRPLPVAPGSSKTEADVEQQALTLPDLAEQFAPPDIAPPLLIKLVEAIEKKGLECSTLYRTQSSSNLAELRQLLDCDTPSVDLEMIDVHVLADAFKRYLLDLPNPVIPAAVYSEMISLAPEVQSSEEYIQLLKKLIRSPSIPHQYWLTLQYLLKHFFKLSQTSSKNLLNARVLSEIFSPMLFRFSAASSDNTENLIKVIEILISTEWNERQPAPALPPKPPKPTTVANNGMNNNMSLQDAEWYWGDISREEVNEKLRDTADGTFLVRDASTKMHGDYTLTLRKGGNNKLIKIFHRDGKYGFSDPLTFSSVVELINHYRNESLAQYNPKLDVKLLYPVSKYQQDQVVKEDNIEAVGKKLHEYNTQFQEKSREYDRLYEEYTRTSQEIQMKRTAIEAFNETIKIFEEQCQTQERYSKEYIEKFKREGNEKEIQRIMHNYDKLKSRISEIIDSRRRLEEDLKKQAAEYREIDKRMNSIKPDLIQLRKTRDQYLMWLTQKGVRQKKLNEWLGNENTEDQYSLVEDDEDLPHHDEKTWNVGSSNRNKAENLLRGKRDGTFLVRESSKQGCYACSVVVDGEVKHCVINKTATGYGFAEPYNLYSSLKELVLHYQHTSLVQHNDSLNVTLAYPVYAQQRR
PI3Kα, sequence (P42336 whole entry): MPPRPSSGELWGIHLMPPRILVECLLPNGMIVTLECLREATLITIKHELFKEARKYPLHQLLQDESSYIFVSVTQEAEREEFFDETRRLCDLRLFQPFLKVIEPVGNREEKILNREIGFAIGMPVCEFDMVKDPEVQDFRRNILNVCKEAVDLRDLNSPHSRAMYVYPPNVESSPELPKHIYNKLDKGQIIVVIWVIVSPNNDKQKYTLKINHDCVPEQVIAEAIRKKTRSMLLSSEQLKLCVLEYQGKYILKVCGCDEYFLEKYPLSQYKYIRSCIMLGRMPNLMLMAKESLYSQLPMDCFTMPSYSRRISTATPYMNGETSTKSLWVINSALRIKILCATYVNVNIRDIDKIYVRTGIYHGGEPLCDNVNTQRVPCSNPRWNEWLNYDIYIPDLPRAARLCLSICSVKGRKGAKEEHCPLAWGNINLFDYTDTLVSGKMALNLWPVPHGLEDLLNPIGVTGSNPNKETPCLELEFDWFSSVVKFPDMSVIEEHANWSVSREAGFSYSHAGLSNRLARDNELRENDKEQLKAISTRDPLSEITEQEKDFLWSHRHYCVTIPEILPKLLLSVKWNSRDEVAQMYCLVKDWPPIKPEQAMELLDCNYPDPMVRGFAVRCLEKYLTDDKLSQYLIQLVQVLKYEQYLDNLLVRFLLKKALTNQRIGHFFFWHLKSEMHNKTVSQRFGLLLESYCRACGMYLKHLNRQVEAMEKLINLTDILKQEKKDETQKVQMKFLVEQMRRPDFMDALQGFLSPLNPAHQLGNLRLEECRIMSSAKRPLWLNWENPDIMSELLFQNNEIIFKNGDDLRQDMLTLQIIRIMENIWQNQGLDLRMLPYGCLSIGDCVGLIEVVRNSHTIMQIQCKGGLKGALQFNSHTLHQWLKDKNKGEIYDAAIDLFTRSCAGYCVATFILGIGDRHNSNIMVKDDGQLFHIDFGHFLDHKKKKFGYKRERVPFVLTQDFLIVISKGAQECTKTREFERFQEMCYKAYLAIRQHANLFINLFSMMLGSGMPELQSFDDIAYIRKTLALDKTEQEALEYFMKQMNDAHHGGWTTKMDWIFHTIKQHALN
Method: PI3K alpha (PI3Kα) activity was determined by measuring the phosphorylation of AKT (Thr308) using an in-cell ELISA assay. MDA-MB-453 (breast carcinoma) cells were obtained from ATCC (ATCC #HTB-131). Growth medium was DMEM (CellGro #CV-10-013-CV) supplemented with 10% fetal bovine serum, 100 IU/mL penicillin, 100 μg/mL streptomycin, and 1×MEM non-essential amino acids. Phosphate buffered saline (PBS) contained 2.7 M NaCl, 54 mM KCl, 86 mM […] (dibasic, anhydrous), and 28 mM […] (monobasic, anhydrous) at pH 7.2. Stimulation mixture (10×) was 1000 ng/mL LONG® R^3 human IGF-1 (Sigma #I1271) diluted in serum-free DMEM medium (CellGro #CV-10-013-CV). Compounds for testing were dissolved and serially diluted in 100% DMSO (total of 10 concentrations), then diluted in serum-free DMEM to 2× final assay concentration. Fixative solution (2×) was 8% formaldehyde (Amresco #M134) diluted in PBS. Permeabilization solution was PBS supplemented with 0.1% Triton X-100. Blocking buffer was obtained from LiCor (LiCor #927-40000). Wash buffer was PBS supplemented with 0.1% Tween-20. Primary antibody solution was rabbit anti-pAKT^T308 monoclonal antibody (Cell Signaling #2965) and mouse anti-total S6 (Santa Cruz #74459) diluted 1:500 and 1:2000, respectively, in the blocking buffer. Secondary antibody solution was IRDye 800CW-conjugated goat anti-rabbit IgG (LiCor #926-32211) and IRDye 680LT-conjugated goat anti-mouse IgG (LiCor #926-68020) diluted 1:1000 and 1:2000, respectively, in the blocking buffer.
MDA-MB-453 cells were subcultured in growth medium and seeded into flat, clear bottom, 96-well plates (Corning #3904) at 40000 cells/well, then incubated overnight in a 5% CO2 incubator at 37° C. Growth medium in plates was replaced with 100 μL/well serum-free DMEM and incubated overnight at 37° C. in a 5% CO2 incubator. Fresh serum-free DMEM (50 μL/well) was added to plates. Compound treatment was performed by adding 50 μL/well of 2× compound mixture to plates and incubating for 1 hr at 37° C. and 5% CO2, after which 11 μL/well of 10× stimulation mixture was added and plates were incubated for 10 min at 37° C. and 5% CO2. Fixation was performed by adding 110 μL/well of 2× fixative solution to the plates and incubating for 20 min at room temperature. Permeabilization was performed by replacing fixation solution with 150 μL/well permeabilization solution and incubating for 10 min at room temperature. Permeabilization was repeated (for a total of 2 times). Permeabilization solution was replaced with 100 μL/well blocking buffer and plates were incubated for 1 hour at room temperature, after which 100 μL/well of primary antibody solution was added and plates were incubated overnight at 4° C. Plates were washed with wash buffer, after which 100 μL/well of secondary antibody solution was added to the plates and incubated in the dark for 1 hr at room temperature. Plates were washed with wash buffer, followed by a wash with PBS. After completely removing PBS, plates were scanned on the Licor Odyssey Imager. Images were quantified using Licor Odyssey application software. IC50 values were determined by curve fitting using a Collaborative Drug Discovery database (www.collaborativedrug.com).

SMILES | IC50 [1] | α/δ ratio [1] | β/δ ratio [1] | γ/δ ratio [1] | IC50 [2] | IC50 [3]
CC(C)(Cc1ccccc1-c1ccccc1F)Nc1nc(N2CCOCC2)nc(-n2c(C(F)F)nc3ccccc32)n1 [Compound A59, 4-(2-(difluoromethyl)-1H-benzo[d]imidazol-1-yl)-N-(1-(2′-fluorobiphenyl-2-yl)-2-methylpropan-2-yl)-6-morpholino-1,3,5-triazin-2-amine] | ≤ 0.1 µM | A’ | A’ | A’ | > 0.5 µM | > 0.5 µM
CN(C)CCCc1ccccc1CC(C)(C)Nc1nc(N2CCOCC2)nc(-n2c(C(F)F)nc3ccccc32)n1 [Compound A76, 4-(2-(difluoromethyl)-1H-benzo[d]imidazol-1-yl)-N-(1-(2-(3-(dimethylamino)propyl)phenyl)-2-methylpropan-2-yl)-6-morpholino-1,3,5-triazin-2-amine] | ≤ 0.1 µM | A’ | A’ | A’ | > 0.5 µM | > 0.5 µM
CN1CCC(c2ccccc2CC(C)(C)Nc2nc(N3CCOCC3)nc(-n3c(C(F)F)nc4ccccc43)n2)CC1 [Compound A35, 4-(2-(difluoromethyl)-1H-benzo[d]imidazol-1-yl)-N-(2-methyl-1-(2-(1-methylpiperidin-4-yl)phenyl)propan-2-yl)-6-morpholino-1,3,5-triazin-2-amine] | ≤ 0.1 µM | A’ | A’ | A’ | > 0.5 µM | > 0.5 µM
CC(C)(Cc1ccccc1-c1cccc(CN2CCOCC2)c1)Nc1nc(N2CCOCC2)nc(-n2c(C(F)F)nc3ccccc32)n1 [Compound A65, 4-(2-(difluoromethyl)-1H-benzo[d]imidazol-1-yl)-N-(2-methyl-1-(3′-(morpholinomethyl)biphenyl-2-yl)propan-2-yl)-6-morpholino-1,3,5-triazin-2-amine] | ≤ 0.1 µM | A’ | B’ | A’ | > 0.5 µM | > 0.5 µM
CN1CCC(c2ccccc2CC(C)(C)Nc2nc(N3CCOCC3)nc(-n3c(C(F)F)nc4ccccc43)n2)C1 (stereo not drawn) [Compound A75, 4-(2-(difluoromethyl)-1H-benzo[d]imidazol-1-yl)-N-(2-methyl-1-(2-(1-methylpyrrolidin-3-yl)phenyl)propan-2-yl)-6-morpholino-1,3,5-triazin-2-amine] | ≤ 0.1 µM | A’ | B’ | A’ | – | > 0.5 µM
CC(C)(Cc1ccccc1-c1ccncc1)Nc1nc(N2CCOCC2)nc(-n2c(C(F)F)nc3ccccc32)n1 [Compound A33, 4-(2-(difluoromethyl)-1H-benzo[d]imidazol-1-yl)-N-(2-methyl-1-(2-(pyridin-4-yl)phenyl)propan-2-yl)-6-morpholino-1,3,5-triazin-2-amine] | ≤ 0.1 µM | – | A’ | A’ | > 0.5 µM | –

Continued, values first:

IC50 [1] | α/δ ratio [1] | β/δ ratio [1] | γ/δ ratio [1] | IC50 [2] | IC50 [3] | SMILES
≤ 0.1 µM | A’ | A’ | A’ | > 0.5 µM | > 0.5 µM | COc1cccc(CC(C)(C)Nc2nc(N3CCOCC3)nc(-n3c(C(F)F)nc4ccccc43)n2)c1 [Compound A21, 4-(2-(difluoromethyl)-1H-benzo[d]imidazol-1-yl)-N-(1-(3-methoxyphenyl)-2-methylpropan-2-yl)-6-morpholino-1,3,5-triazin-2-amine]
≤ 0.1 µM | A’ | D’ | A’ | > 0.5 µM | > 0.5 µM | CC(C)(Cc1c(F)cccc1F)Nc1nc(N2CCOCC2)nc(-n2c(C(F)F)nc3ccccc32)n1 [Compound A52, 4-(2-(difluoromethyl)-1H-benzo[d]imidazol-1-yl)-N-(1-(2,6-difluorophenyl)-2-methylpropan-2-yl)-6-morpholino-1,3,5-triazin-2-amine]
≤ 0.1 µM | A’ | A’ | A’ | > 0.5 µM | > 0.5 µM | CC(C)(Cc1ccc(F)cc1)Nc1nc(N2CCOCC2)nc(-n2c(C(F)F)nc3ccccc32)n1 [Compound A22, 4-(2-(difluoromethyl)-1H-benzo[d]imidazol-1-yl)-N-(1-(4-fluorophenyl)-2-methylpropan-2-yl)-6-morpholino-1,3,5-triazin-2-amine]
≤ 0.1 µM | A’ | D’ | A’ | > 0.5 µM | > 0.5 µM | CC(C)(Cc1ccc(F)cc1F)Nc1nc(N2CCOCC2)nc(-n2c(C(F)F)nc3ccccc32)n1 [Compound A51, 4-(2-(difluoromethyl)-1H-benzo[d]imidazol-1-yl)-N-(1-(2,4-difluorophenyl)-2-methylpropan-2-yl)-6-morpholino-1,3,5-triazin-2-amine]
≤ 0.1 µM | – | C’ | – | > 0.5 µM | – | CC(C)(Cc1cccc2ccccc12)Nc1nc(N2CCOCC2)nc(-n2c(C(F)F)nc3ccccc32)n1 [Compound A27, 4-(2-(difluoromethyl)-1H-benzo[d]imidazol-1-yl)-N-(2-methyl-1-(naphthalen-1-yl)propan-2-yl)-6-morpholino-1,3,5-triazin-2-amine]
≤ 0.1 µM | – | D’ | – | > 0.5 µM | – | COc1ccccc1CC(C)(C)Nc1nc(N2CCOCC2)nc(-n2c(C(F)F)nc3ccccc32)n1 [Compound A19, 4-(2-(difluoromethyl)-1H-benzo[d]imidazol-1-yl)-N-(1-(2-methoxyphenyl)-2-methylpropan-2-yl)-6-morpholino-1,3,5-triazin-2-amine]
